Assay results taken from patent EP4664463A1, “COMPUTER-IMPLEMENTED METHOD FOR OLFACTORY PROPERTY PREDICTION” (Givaudan SA, priority 2024, dated 2025).
Like-named read-outs stand apart in the source and are kept apart here.

Key:
Type in all cases: cell-based
[1] = target: T1, OR10A3 (Homo sapiens, UniProt P58181); experiment: Luciferase assay with odorant mixtures/single ingredients, OR with SEQ ID NO: 221
T1 construct: expressed in transfected cells; host or cells: HEK293T stably expressing human RTP1S(V227I) and RTP2(L220R) (general method)
T1 sequence (P58181 with tags, fused parts or gaps): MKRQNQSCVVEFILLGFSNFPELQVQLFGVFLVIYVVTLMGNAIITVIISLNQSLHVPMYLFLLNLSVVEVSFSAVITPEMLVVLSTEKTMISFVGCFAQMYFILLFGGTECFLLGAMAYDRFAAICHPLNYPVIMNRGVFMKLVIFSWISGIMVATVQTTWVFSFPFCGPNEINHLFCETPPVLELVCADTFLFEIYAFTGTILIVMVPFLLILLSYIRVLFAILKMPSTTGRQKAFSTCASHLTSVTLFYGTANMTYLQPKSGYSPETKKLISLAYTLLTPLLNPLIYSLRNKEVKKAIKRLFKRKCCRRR
Excerpt: (§1) All human class II OR and all key genetic variants of these OR were synthesized with a sequence coding for an identical modified C-terminal domain […] (SEQ ID NO: 221) in the vector pcDNA3.1(+) to generate a library of all class II OR with an improved C-terminal domain. Class II OR library members with modified C-terminal domains
(§2) Similarly, a mixture of odorants with fruity-lactonic descriptors was made containing equal amounts of dodecalactone delta, heptalactone gamma, octalactone gamma, nonalactone gamma, undecalactone gamma, decalactone gamma, dodecalactone gamma, decalactone delta, methyl tuberate and nectaryl. […] Table 25. OR identified by screening class II OR with a mixture of fruity lactones
(§3) In a subsequent de-convolution experiment, the single ingredients were tested in a dose-response test on all the identified OR. […] Thus, OR2AP1 and OR2J2 are particularly strongly activated by the long-chain dodecalactone gamma, while OR10A3 is very sensitive to several longer chain lactones. […] Among the five OR, OR10A3 is the most sensitive. […] Table 26. OR identified by screening class II OR with a mixture of fruity lactones tested with individual lactones in a dose-response analysis

[2] = target: T2, OR10A6(A117V,V140G,L287P) (Homo sapiens, UniProt Q8NH74, A117V/L287P/V140G); experiment: as above
T2 construct: expressed in transfected cells; host or cells: HEK293T stably expressing human RTP1S(V227I) and RTP2(L220R) (general method)
T2 sequence (Q8NH74 with tags, fused parts or gaps A117V/V140G/L287P): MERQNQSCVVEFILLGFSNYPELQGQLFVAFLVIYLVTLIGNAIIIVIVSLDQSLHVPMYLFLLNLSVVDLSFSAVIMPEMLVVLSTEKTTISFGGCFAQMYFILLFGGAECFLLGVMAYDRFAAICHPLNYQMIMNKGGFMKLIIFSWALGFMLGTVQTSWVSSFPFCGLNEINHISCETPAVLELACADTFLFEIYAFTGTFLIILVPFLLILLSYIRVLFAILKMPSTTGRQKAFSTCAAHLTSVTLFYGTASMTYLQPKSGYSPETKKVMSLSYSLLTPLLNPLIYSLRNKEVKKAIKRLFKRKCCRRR
Excerpt: as §1, §2, §3

[3] = target: T3, OR10J1(M51I,I92M) (Homo sapiens, UniProt P30954, I103M/M62I); experiment: as above
T3 construct: expressed in transfected cells; host or cells: HEK293T stably expressing human RTP1S(V227I) and RTP2(L220R) (general method)
T3 sequence (P30954 with tags, fused parts or gaps M62I/I103M): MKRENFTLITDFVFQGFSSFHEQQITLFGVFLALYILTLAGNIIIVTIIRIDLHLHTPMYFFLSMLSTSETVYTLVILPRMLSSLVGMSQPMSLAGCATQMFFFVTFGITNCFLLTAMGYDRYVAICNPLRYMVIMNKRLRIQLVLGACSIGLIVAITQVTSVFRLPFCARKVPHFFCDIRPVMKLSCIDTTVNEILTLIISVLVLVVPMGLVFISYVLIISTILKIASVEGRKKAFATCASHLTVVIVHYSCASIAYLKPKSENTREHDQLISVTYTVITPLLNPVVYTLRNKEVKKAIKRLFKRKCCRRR
Excerpt: as §1, §2, §3

[4] = target: T4, OR2J2 (Homo sapiens, UniProt O76002, A146V/A218T/A302I/G300K/H297E/H74Y); experiment: as above
T4 construct: expressed in transfected cells; host or cells: HEK293T stably expressing human RTP1S(V227I) and RTP2(L220R) (general method)
T4 sequence (O76002 with tags, fused parts or gaps H74Y/A146V/A218T/H297E/G300K/A302I): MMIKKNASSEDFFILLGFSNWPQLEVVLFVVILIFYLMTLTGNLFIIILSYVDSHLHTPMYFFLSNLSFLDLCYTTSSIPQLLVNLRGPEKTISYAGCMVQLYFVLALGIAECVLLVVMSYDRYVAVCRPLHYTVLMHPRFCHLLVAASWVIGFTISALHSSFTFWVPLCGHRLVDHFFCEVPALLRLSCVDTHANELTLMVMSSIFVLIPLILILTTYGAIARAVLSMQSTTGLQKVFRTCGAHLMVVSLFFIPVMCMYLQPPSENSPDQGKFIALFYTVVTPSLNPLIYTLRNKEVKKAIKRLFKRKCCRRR
Excerpt: as §1, §2, §3

[5] = target: T5, OR2AP1 (Homo sapiens, UniProt Q8NGE2); experiment: as above
T5 construct: expressed in transfected cells; host or cells: HEK293T stably expressing human RTP1S(V227I) and RTP2(L220R) (general method)
T5 sequence (Q8NGE2 with tags, fused parts or gaps): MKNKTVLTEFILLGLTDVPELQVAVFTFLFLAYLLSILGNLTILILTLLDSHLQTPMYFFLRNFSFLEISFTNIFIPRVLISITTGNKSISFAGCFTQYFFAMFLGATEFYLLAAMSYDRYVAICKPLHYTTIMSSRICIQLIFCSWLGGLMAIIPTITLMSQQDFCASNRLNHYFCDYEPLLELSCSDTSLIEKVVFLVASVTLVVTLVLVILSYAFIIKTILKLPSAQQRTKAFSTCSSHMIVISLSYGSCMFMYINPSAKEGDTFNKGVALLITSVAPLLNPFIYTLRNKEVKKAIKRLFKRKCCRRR

[6] = target: T6, OR7C1 (Homo sapiens, UniProt O76099, D296E/G302K/M297V/R299D/T295K); experiment: Luciferase dose-response, wild-type vs changed C-terminus (SEQ ID NO: 86); details: for EC50: read-out: Potency EC50
T6 construct: expressed in transfected cells; host or cells: HEK293T cells stably expressing human RTP1S (V227I) and RTP2 (L220R); transient transfection of pcDNA3.1(+) OR plasmid
T6 sequence (O76099 with tags, fused parts or gaps T295K/D296E/M297V/R299D/G302K limits assumed): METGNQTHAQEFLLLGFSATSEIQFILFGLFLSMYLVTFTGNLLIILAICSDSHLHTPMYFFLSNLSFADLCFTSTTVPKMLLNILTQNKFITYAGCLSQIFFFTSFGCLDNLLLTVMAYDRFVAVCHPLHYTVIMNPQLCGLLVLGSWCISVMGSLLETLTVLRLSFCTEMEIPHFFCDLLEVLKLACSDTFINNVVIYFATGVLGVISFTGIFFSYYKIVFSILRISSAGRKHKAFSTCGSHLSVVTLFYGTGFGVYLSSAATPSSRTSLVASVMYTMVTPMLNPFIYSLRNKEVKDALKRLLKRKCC
Excerpt: (§4) To create an expression plasmid, an OR coding sequence fused at the end of TM7 to the desired C-terminus sequence was synthesized by a DNA synthesis service provider (BioCat GmbH, Germany) and inserted into pcDNA3.1(+) (Invitrogen, MA, USA) downstream of the CMV promoter sequence (SEQ ID NO: 82) using BamHI and Notl restriction sites. All the synthetic OR nucleotide sequences described below in Examples 1-15 further contained at their N-terminus a nucleotide sequence encoding a signal peptide (mmLucy-FLAG-rho, SeQ ID NOs: 80, 81) and at the C-terminus the bgh terminator sequence (SEQ ID NO: 83). All the OR expression plasmids also contain a Kozak sequence (GCCACC) between the BamHI restriction site and the start codon of the signal peptide. These plasmids thus contain a constitutively expressed OR gene.

[7] = target: T7, OR5A2 (Homo sapiens, UniProt Q8NGI9); experiment: as above; details: OR5A2 with SEQ ID NO: 86
T7 construct: expressed in transfected cells; host or cells: HEK293T cells with stably integrated human RTP1S (V227I) and RTP2 (L220R)
T7 sequence (Q8NGI9 with tags, fused parts or gaps): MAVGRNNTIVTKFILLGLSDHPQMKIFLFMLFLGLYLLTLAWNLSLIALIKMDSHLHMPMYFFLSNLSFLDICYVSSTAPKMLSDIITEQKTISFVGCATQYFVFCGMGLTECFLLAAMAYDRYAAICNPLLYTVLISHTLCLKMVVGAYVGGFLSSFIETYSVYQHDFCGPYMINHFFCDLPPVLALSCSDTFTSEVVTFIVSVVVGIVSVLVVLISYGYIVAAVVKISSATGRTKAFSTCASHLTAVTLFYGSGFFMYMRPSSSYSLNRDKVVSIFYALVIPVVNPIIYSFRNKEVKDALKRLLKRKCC
Excerpt: as §4

[8] = target: T8, OR2T4 (Homo sapiens, UniProt Q8NH00, D328E/G331D/M330K); experiment: cell-based; details: OR2T4 with SEQ ID NO: 86
T8 construct: expressed in transfected cells; host or cells: HEK293T cells stably expressing human RTP1S (V227I) and RTP2 (L220R)
T8 sequence (Q8NH00 with tags, fused parts or gaps D328E/M330K/G331D): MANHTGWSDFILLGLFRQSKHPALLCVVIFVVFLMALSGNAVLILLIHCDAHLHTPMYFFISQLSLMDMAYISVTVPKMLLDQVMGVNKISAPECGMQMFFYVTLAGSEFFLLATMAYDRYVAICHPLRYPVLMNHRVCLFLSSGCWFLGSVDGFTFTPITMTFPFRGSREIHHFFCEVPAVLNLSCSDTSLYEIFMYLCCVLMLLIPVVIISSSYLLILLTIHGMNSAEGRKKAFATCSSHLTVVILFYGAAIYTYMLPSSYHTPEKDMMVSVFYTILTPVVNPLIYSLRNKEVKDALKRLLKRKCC
Excerpt: as §4

Row | SMILES | EC10 (concentration for 10-fold OR activation) [1] | EC2 (concentration for 2-fold luciferase induction) [2] | EC2 (concentration for 2-fold luciferase induction) [3] | EC2 (concentration for 2-fold luciferase induction) [4] | EC2 (concentration for 2-fold luciferase induction) [5] | also measured
1 | CCCCCCCC1CCCC(=O)O1 (stereo not shown) [Dodecalactone delta] | 2.59 µM | 1.11 µM | 31.38 µM | 35.12 µM | 15.76 µM | 
2 | CCCCCCCC1CCC(=O)O1 (stereo not shown) [Undecalactone gamma] | 0.28 µM | 0.34 µM | 2.11 µM | 0.71 µM | 6.53 µM | 
3 | CCCCCCCCC1CCC(=O)O1 (stereo not shown) [Dodecalactone gamma] | 0.85 µM | 0.48 µM | 5.31 µM | 1.41 µM | 1.31 µM | 
4 | CCCCCC1CCCC(=O)O1 (stereo not shown) [Decalactone delta] | 2.10 µM | 5.31 µM | 31.73 µM | 98.89 µM | inactive | 
5 | CC(CO)C1=C2C(C)(C)C3CCC2(C3)C(C)(C)CC1 (stereo not shown) [Ambermax] |  |  |  |  |  | Comments on efficacy [6]: 3.5-fold lower maximal induction for wild-type; Fold-improvement potency [6]: 2.7; Fold-improvement threshold [6]: 16.2; luciferase induction ([6]; 1 µM, OR7C1 with SEQ ID NO: 86): around 10 fold; EC50 ([6]; changed C-term SEQ ID NO: 86): 2.3 µM; Detection threshold; concentration for 2-fold induction ([6]; changed C-term. SEQ ID NO: 86): 0.17 µM; Detection threshold; concentration for 2-fold induction ([6]; wild-type): 2.76 µM; EC50 ([6]; wild-type): 6.14 µM
6 | CCOc1cc(C=O)ccc1O [ethyl vanillin] |  |  |  |  |  | response of the modified receptor [7]: no response
7 | CCCC1CCC(=O)O1 (stereo not shown) [Heptalactone gamma] | 298.04 µM | inactive | inactive | inactive | inactive | 
8 | CC1=CCC(C(C)CC2CCCC2=O)CC1 (stereo not shown) [Nectaryl] | 2.32 µM | 1.12 µM | inactive |  | 19.72 µM | 
9 | CC1OCCC1S (stereo not shown) [2-methyl-3-tetrahydrofuranthiol] |  |  |  |  |  | ligands identified in screening of sulfur odorants [8]: good ligands
10 | CCCSSCCC [dipropyl disulfide] |  |  |  |  |  | ligands identified in screening of sulfur odorants [8]: good ligands
11 | CCCCC1CCC(=O)O1 (stereo not shown) [Octalactone gamma] | 26.93 µM | inactive | 101.73 µM | 65.20 µM | inactive | 
12 | CCCCCCC1CCC(=O)O1 (stereo not shown) [Decalactone gamma] | 0.84 µM | 1.62 µM | 3.63 µM | 3.27 µM | 33.66 µM | 
13 | CCCCCC1CCC(=O)O1 (stereo not shown) [Nonalactone gamma] | 2.83 µM | 11.34 µM | 11.14 µM | 12.85 µM | inactive | 
